Assays:
Assay type in all cases: functional, cell-based
[1] = test system: MCF7; assay: Antiproliferative activity against human MCF7 cells assessed as reduction in cell viability measured after 48 hrs by MTT assay; details: MCF7, 48 h
[2] = test system: A549; assay: Antiproliferative activity against human A549 cells assessed as reduction in cell viability measured after 48 hrs by MTT assay; details: A549, 48 h
[3] = test system: HeLa; assay: Antiproliferative activity against human HeLa cells assessed as reduction in cell viability measured after 48 hrs by MTT assay
[4] = test system: B16-F10; assay: Antiproliferative activity against mouse B16-F10 cells assessed as reduction in cell viability measured after 48 hrs by MTT assay; details: B16-F10, 48 h

| Compound | IC50 [1] | IC50 [2] | IC50 [3] | IC50 [4] |
| --- | --- | --- | --- | --- |
| COc1cc(-c2cccc3[nH]c(-c4ccc5c(ccn5C)c4)nc23)cc(OC)c1OC | 700 nM | 2600 nM | 1540 nM | 746 nM |
| COc1cc(-c2cccc3[nH]c(-c4ccc(C(=N)NO)cc4)nc23)cc(OC)c1OC | > 10000 nM | > 10000 nM | > 10000 nM | > 10000 nM |
| COc1cc(-c2ccc3[nH]nc(-c4cccc(C#N)c4)c3c2)cc(OC)c1OC | > 10000 nM | > 10000 nM | > 10000 nM | > 10000 nM |
| COc1cc(-c2n[nH]c3ccc(-c4ccc(F)cc4)cc23)cc(OC)c1OC | 606 nM | 759 nM | 926 nM | 635 nM |
| COc1cc(-c2cccc3[nH]c(-c4cccc(C#N)c4)nc23)cc(OC)c1OC | > 10000 nM | > 10000 nM | 6190 nM | 6190 nM |
| Cn1ccc2cc(-c3nccn4c(-c5ccc6c(ccn6C)c5)cnc34)ccc21 | > 10000 nM | > 10000 nM | > 10000 nM | > 10000 nM |
| COc1cc(-c2ccc3[nH]nc(-c4ccc(F)cc4)c3c2)cc(OC)c1OC | > 10000 nM | > 10000 nM | > 10000 nM | > 10000 nM |
| COc1cc(-c2ccc3[nH]nc(-c4ccc(C#N)cc4)c3c2)cc(OC)c1OC | > 10000 nM | > 10000 nM | > 10000 nM | > 10000 nM |
| COc1cc(-c2n[nH]c3ccc(-c4cccc(C(=N)NO)c4)cc23)cc(OC)c1OC | > 10000 nM | 6250 nM | 4680 nM | 8030 nM |
| COc1cc(-c2nccn3c(-c4cc(OC)c(OC)c(OC)c4)cnc23)cc(OC)c1OC | > 10000 nM | > 10000 nM | > 10000 nM | > 10000 nM |
| COc1ccc(-c2ccc3[nH]nc(-c4cc(OC)c(OC)c(OC)c4)c3c2)cc1 | 37 nM | 191 nM | 132 nM | 161 nM |
| COc1cc(-c2n[nH]c3ccc(-c4ccc(C(=N)NO)cc4)cc23)cc(OC)c1OC | 3160 nM | 2980 nM | 3790 nM | 1600 nM |
| COc1cc(-c2cnc3c(-c4ccc5c(ccn5C)c4)nccn23)cc(OC)c1OC | > 10000 nM | > 10000 nM | > 10000 nM | > 10000 nM |
| COc1cc(-c2ccc3[nH]nc(-c4ccc(C)cc4)c3c2)cc(OC)c1OC | > 10000 nM | > 10000 nM | > 10000 nM | > 10000 nM |

Results, then the compound that gave them:

| IC50 [1] | IC50 [2] | IC50 [3] | IC50 [4] | Compound |
| --- | --- | --- | --- | --- |
| 1180 nM | 1250 nM | 3700 nM | 3700 nM | COc1cc(-c2ccnc3cc(-c4ccc5cnn(C)c5c4)nn23)cc([Se]C)c1OC |
| > 10000 nM | > 10000 nM | > 10000 nM | > 10000 nM | COc1cc(-c2ccc3[nH]nc(-c4ccccc4)c3c2)cc(OC)c1OC |
| 245 nM | 445 nM | 547 nM | 394 nM | COc1cc(-c2n[nH]c3ccc(-c4ccccc4)cc23)cc(OC)c1OC |
| 349 nM | 360 nM | 662 nM | 662 nM | COc1cc(-c2ccnc3cc(-c4c[nH]c5ccccc45)nn23)cc([Se]C)c1OC |
| 313 nM | 224 nM | 856 nM | 856 nM | COc1cc(-c2ccnc3cc(-c4cn(CO)c5ccccc45)nn23)cc([Se]C)c1OC |
| 3160 nM | > 10000 nM | 7120 nM | 7120 nM | COc1cc(-c2ccnc3cc(-c4ccccc4)nn23)cc([Se]C)c1OC |
| 2380 nM | 1040 nM | 2040 nM | 1710 nM | COc1cc(-c2n[nH]c3ccc(-c4cccc(C#N)c4)cc23)cc(OC)c1OC |
| 123 nM | 372 nM | 126 nM | 126 nM | COc1cc(-c2ccnc3cc(-c4ccc5c(ccn5C)c4)nn23)cc([Se]C)c1OC |
| 176 nM | 1010 nM | 981 nM | 631 nM | COc1cc(-c2cccc3[nH]c(-c4cn(C)c5ccccc45)nc23)cc(OC)c1OC |

Source: ChEMBL document CHEMBL4808173, “Discovery of Novel Benzimidazole and Indazole Analogues as Tubulin Polymerization Inhibitors with Potent Anticancer Activities” (J Med Chem, 2021)
